Assay [1] relates to PC-3 prostate cancer cells. The assay is described as follows: PC3 cell viability and proliferation assay (MTS). The class given is cell-based. Particulars: Homo sapiens, PC-3, 72 hours incubation, mean of three independent experiments, read-out: PC3 GI50 D3. As for the experimental part: PC-3 prostate cancer cells were obtained from ATCC, and maintained in F-12K medium containing 7% FBS and 1% penicillin/streptomycin. Cells were incubated at 37° C. in a humidified atmosphere containing 5% CO2.
Cell viability was assayed using the MTS technique in 96-well culture plates (CellTiter 96® Aqueous Non-Radioactive Cell Proliferation Assay, Promega) according to the manufacturer's instructions. MTS (3-(4,5-dimethyl-thiazol-2-yl)-5-(3-carboxymethoxyphenyl)-2-(4-sulfophenyl)-2H-tetrazolium) is a MTT-derived tetrazolium that is reduced in metabolically active cells into a soluble, cell-permeant formazan. The amount of formazan, detected by its absorbance at 492 nm is proportional to the number of living, metabolically active cells.
2×10^3 PC3 cells were seeded per well. 24 hours later, the medium was changed and the cells treated in triplicate with the following concentrations of each compound: 10 μM-3.33 μM-1.11 μM-370 nM-123 nM-41 nM-14 nM and 5 nM. The compounds were diluted in 100% DMSO, whose final concentration on cells was kept at 0.5%.
Cells were incubated with the compounds for 72 hours, and their viability then assayed by the addition of MTS for 2 hours. Absorbance at 492 nm was measured directly from the 96-well culture plates. GI50 (Growth Inhibition 50) concentrations for each compound were calculated using a sigmoidal variable slope fit (Prism 4.0, Graphpad Softwares). Values represent mean of three independent experiments.

For assay [2], the system named is HCT116 colon cancer cells. The assay is described as follows: HCT116 cell viability and proliferation assay (MTS). The class given is cell-based. The note with it: Homo sapiens, HCT-116, 72 hours incubation, mean of three independent experiments, read-out: HCT116 GI50 D3. As for the experimental part:
HCT116 colon cancer cells were obtained from ATCC (American Type Culture Collection), and maintained in Mc Coy's 5A medium containing 10% FBS, 3 mM glutamine and 1% penicillin/streptomycin. Cells were incubated at 37° C. in a humidified atmosphere containing 5% CO2.
Cell viability was assayed using the MTS technique in 96-well culture plates (CellTiter 96® Aqueous Non-Radioactive Cell Proliferation Assay, Promega) according to the manufacturer's instructions. MTS (3-(4,5-dimethyl-thiazol-2-yl)-5-(3-carboxymethoxyphenyl)-2-(4-sulfophenyl)-2H-tetra-zolium) is a MTT-derived tetrazolium that is reduced in metabolically active cells into a soluble, cell-permeant formazan. The amount of formazan, detected by its absorbance at 492 nm is proportional to the number of living, metabolically active cells.
10^3 HCT116 cells were seeded per well. 24 hours later, the medium was changed and the cells treated in triplicate with the following concentrations of each compound: 10 μM-3.33 μM-1.11 μM-370 nM-123 nM-41 nM-14 nM and 5 nM. The compounds were diluted in 100% DMSO, whose final concentration on cells was kept at 0.5%.
Cells were incubated with the compounds for 72 hours, and their viability then assayed by the addition of MTS for 2 hours. Absorbance at 492 nm was measured directly from the 96-well culture plates. G150 (Growth Inhibition 50) concentrations for each compound were calculated using a sigmoidal variable slope fit (Prism 4.0, Graphpad Softwares). Values represent mean of three independent experiments.

With `Cc1nnc2nc3c(nn12)-c1ccccc1C3=O` [Example 1b/B, 3-Methyl-1,2,3a,4,10-pentaaza-cyclopenta[b]fluoren-9-one], the figures for the GI50 in assay [1] and in assay [2] were 334 nM and 84 nM, respectively.

Regarding `Nc1nnc2nc3c(nn12)C(=O)c1ccccc1-3` [Example 1c/A, 1-Amino-2,3,4,10,10a-pentaaza-cyclopenta[b]fluoren-9-one], in assay [2], the GI50 was 8500 nM.

In the case of `CCc1nnc2nc3c(nn12)C(=O)c1ccccc1-3` [Example 1d/A, 1-Ethyl-2,3,4,10,10a-pentaaza-cyclopenta[b]fluoren-9-one], the GI50 in assay [1] worked out at 5400 nM; in assay [2] it was 1400 nM.

On to `CCc1nnc2nc3c(nn12)-c1ccccc1C3=O` [Example 1d/B, 3-Ethyl-1,2,3a,4,10-pentaaza-cyclopenta[b]fluoren-9-one], for which the GI50 in assay [1] is 256 nM; in assay [2], 59 nM.

Turning to `CCCc1nnc2nc3c(nn12)-c1ccccc1C3=O` [Example 1e/B, 3-Propyl-1,2,3a,4,10-pentaaza-cyclopenta[b]fluoren-9-one], the GI50 in assay [1] was 175 nM; in assay [2] it was 67 nM.

For the compound `CCCCc1nnc2nc3c(nn12)C(=O)c1ccccc1-3` [Example 1f/A, 1-Butyl-2,3,4,10,10a-pentaaza-cyclopenta[b]fluoren-9-one], the GI50 came out at 3800 nM in assay [1] and 1360 nM in assay [2].

Consider `CCCCc1nnc2nc3c(nn12)-c1ccccc1C3=O` [Example 1f/B, 3-Butyl-1,2,3a,4,10-pentaaza-cyclopenta[b]fluoren-9-one], for which the GI50 in assay [1] was 96 nM; in assay [2] it was 40 nM.

`CC(C)Cc1nnc2nc3c(nn12)-c1ccccc1C3=O` [Example 1g/B, 3-Isobutyl-1,2,3a,4,10-pentaaza-cyclopenta[b]fluoren-9-one]: the GI50 in assay [1] was 162 nM; in assay [2], 53 nM.

Regarding `O=C1c2ccccc2-c2nn3c(CO)nnc3nc21` [Example 1h/B, 3-Hydroxymethyl-1,2,3a,4,10-pentaaza-cyclopenta[b]fluoren-9-one], the GI50 stood at 1440 nM in assay [1] and 323 nM in assay [2].

Take `COCc1nnc2nc3c(nn12)-c1ccccc1C3=O` [Example 1i/B, 3-Methoxymethyl-1,2,3a,4,10-pentaaza-cyclopenta[b]fluoren-9-one]: the values for the GI50 in assay [1] and in assay [2] were 238 nM and 65 nM, respectively.

Consider `Cc1nnc2nc3c(nn12)-c1ccc(Cl)cc1C3=O` [Example 3/B, 7-Chloro-3-methyl-1,2,3a,4,10-pentaaza-cyclopenta[b]fluoren-9-one], for which the figures for the GI50 in assay [1] and in assay [2] were 286 nM and 98 nM, respectively.

The GI50 is the concentration giving 50% growth inhibition.

The values are drawn from patent US20090181972A1, “Novel Inhibitors of Cysteine Proteases, the Pharmaceutical Compositions Thereof and their Therapeutic Applications” (priority 2005, published 2009).
